Earlier results on one molecule are cited in US20260071096A1, “BONDED ABRASIVE ARTICLES AND METHODS OF MANUFACTURE” (3M INNOVATIVE PROPERTIES COMPANY, priority 2020, published 2026).

Molecules are shown by their SMILES.

The conditions of the series: species and route not given.

`c1ccc2ccccc2c1` [Naphthalene, naphthalene]: the “LD50 (mean lethal dose)” value was 490 mg/kg.
